ChEMBL document CHEMBL2010699, “Novel substituted 9-norbornylpurines and their activities against RNA viruses” (Bioorg Med Chem Lett, 2012)
pEC50: −log10 of the molar value. In brackets after ≈: the same amount, converted by molar mass. Activity calls are given as the source filed them. The calls are words filed in the database; no cut-off is given here.

What was measured:
[1] = Solubility of the compound in water at 20 degC by UV spectrophotometry; format: physicochemical
Hepatitis C virus = assay: Antiviral activity against Hepatitis C virus assessed as suppression of viral replication; format: functional, organism-based; settings: Hepacivirus hominis
Coxsackievirus B3 [2] = assay: Antiviral activity against Coxsackievirus B3 infected in african green monkey Vero cells assessed as inhibition virus-induced cell death by MTS assay; format: functional, organism-based; settings: Enterovirus B
[3] = Cytotoxicity against african green monkey Vero cells assessed as inhibition of host metabolism by MTS assay; format: cell-based; settings: chlorocebus sabaeus
Chikungunya virus = assay: Antiviral activity against Chikungunya virus assessed as suppression of viral replication; format: functional
[4] = Selectivity index, ratio of CC50 for african green monkey Vero cells to EC50 for Coxsackievirus B3; format: toxicity, cell-based; settings: read-out: Ratio CC50/EC50
Coxsackievirus B3 [5] = assay: Antiviral activity against Coxsackievirus B3 infected in african green monkey vero cells assessed as inhibition of virus-induced cytopathic effect by microscopic estimation; format: functional, organism-based
Vero = assay: Cytotoxicity against african green monkey Vero cells assessed as change in morphology of the cells by microscopic analysis; format: cell-based; settings: chlorocebus sabaeus

SMILES	solubility [1] [µg/mL]	Activity (Hepatitis C virus)	pEC50 (Coxsackievirus B3 [2])	EC90 (Coxsackievirus B3 [2]) [µM]	CC50 [3] [µM]	Activity (Chikungunya virus)	selectivity ratio [4]	Activity (Coxsackievirus B3 [5])	Activity (Vero)
Clc1ncnc2c1ncn2C1CC2CCC1C2 (stereo unspecified)	530 (≈ 2.13 mM)	–	–	–	–	–	–	–	–
O=C(OC1CC2CC1CC2n1cnc2c(Cl)ncnc21)c1ccccc1 (stereo unspecified)	–	inactive	< 3.82	> 150	> 542	inactive	–	–	–
O=C(OC1CC2CC1C(n1cnc3c(Cl)ncnc31)C2)c1ccccc1 (stereo unspecified)	–	inactive	4.46	> 45	45	inactive	1.3	–	–
C[C@@]1(O)[C@H](O)[C@@H](CO)O[C@H]1n1ccc(N)nc1=O	–	–	4.03	179	–	–	–	–	–
CCCCCC(=O)O[C@H]1C[C@H]2C[C@@H]1[C@H](n1cnc3c(Cl)ncnc31)C2 (relative stereo)	–	inactive	< 4.15	> 70	70	inactive	< 1	–	–
CCCCCCCC(=O)O[C@H]1C[C@H]2C[C@@H]1[C@H](n1cnc3c(Cl)ncnc31)C2 (relative stereo)	–	inactive	< 4.30	> 50	50	inactive	< 1	–	–
CCCCCCCCCC(=O)O[C@H]1C[C@H]2C[C@@H]1[C@H](n1cnc3c(Cl)ncnc31)C2 (relative stereo)	–	inactive	< 4.36	> 44	44	inactive	< 1	–	–
CCCCCC(=O)O[C@H]1C[C@H]2C[C@@H]1C[C@@H]2n1cnc2c(Cl)ncnc21 (relative stereo)	–	inactive	4.47	56	60	inactive	1.8	Active	Non-toxic
CCCCCCCC(=O)O[C@H]1C[C@H]2C[C@@H]1C[C@@H]2n1cnc2c(Cl)ncnc21 (relative stereo)	–	inactive	< 4.28	> 52	52	inactive	< 1	–	–
CCCCCCCCCC(=O)O[C@H]1C[C@H]2C[C@@H]1C[C@@H]2n1cnc2c(Cl)ncnc21 (relative stereo)	–	inactive	4.49	> 47	47	inactive	1.5	Active	Non-toxic
CO[C@H]1C[C@H]2C[C@@H]1C[C@@H]2n1cnc2c(Cl)ncnc21 (relative stereo)	–	inactive	4.57	37	> 718	inactive	> 27	Active	Non-toxic
CCCCCO[C@H]1C[C@H]2C[C@@H]1C[C@@H]2n1cnc2c(Cl)ncnc21 (relative stereo)	–	inactive	4.68	> 32	32	inactive	1.5	–	–
CCCCCCO[C@H]1C[C@H]2C[C@@H]1C[C@@H]2n1cnc2c(Cl)ncnc21 (relative stereo)	–	inactive	< 4.57	> 27	27	inactive	< 1	–	–
Clc1ncnc2c1ncn2[C@H]1C[C@H]2C[C@@H]1C[C@@H]2OC1CCCCC1 (relative stereo)	–	inactive	< 4.66	> 22	22	inactive	< 1	–	–
Clc1ncnc2c1ncn2[C@H]1C[C@H]2C[C@@H]1C[C@@H]2Oc1ccccc1 (relative stereo)	–	inactive	< 4.30	> 50	50	inactive	< 1	–	–
Clc1ncnc2c1ncn2[C@@H]1C[C@@H]2C[C@H]1[C@@H](Oc1ccccc1)C2 (relative stereo)	–	inactive	< 3.82	> 150	> 587	inactive	–	–	–
Oc1ccc(O[C@H]2C[C@H]3C[C@@H]2C[C@@H]3n2cnc3c(Cl)ncnc32)cc1 (relative stereo)	–	inactive	4.24	–	217	inactive	3.7	–	–
OCCO[C@H]1C[C@H]2C[C@@H]1C[C@@H]2n1cnc2c(Cl)ncnc21 (relative stereo)	–	inactive	4.43	–	> 648	inactive	> 18	Active	Non-toxic
OCCCO[C@H]1C[C@H]2C[C@@H]1C[C@@H]2n1cnc2c(Cl)ncnc21 (relative stereo)	–	inactive	4.33	–	> 620	inactive	> 13	Active	Non-toxic
OCCCCO[C@H]1C[C@H]2C[C@@H]1C[C@@H]2n1cnc2c(Cl)ncnc21 (relative stereo)	–	inactive	4.43	53	> 594	inactive	> 16	Active	Non-toxic
OCCCCCO[C@H]1C[C@H]2C[C@@H]1C[C@@H]2n1cnc2c(Cl)ncnc21 (relative stereo)	–	inactive	4.66	30	> 570	inactive	> 26	Active	Non-toxic
OCCOCCO[C@H]1C[C@H]2C[C@@H]1C[C@@H]2n1cnc2c(Cl)ncnc21 (relative stereo)	7460 (≈ 21.1 mM)	inactive	4.38	60	> 567	inactive	> 14	Active	Non-toxic
OCCO[C@H]1C[C@H]2C[C@@H]1[C@H](n1cnc3c(Cl)ncnc31)C2 (relative stereo)	–	inactive	4.54	37	> 648	inactive	> 22	Active	Non-toxic
OCCO[C@@H]1C[C@H]2C[C@@H]1C[C@@H]2n1cnc2c(Cl)ncnc21 (relative stereo)	4570 (≈ 14.8 mM)	inactive	4.80	32	> 648	inactive	> 41	Active	Non-toxic
OCCO[C@@H]1C[C@H]2C[C@@H]1[C@H](n1cnc3c(Cl)ncnc31)C2 (relative stereo)	4690 (≈ 15.2 mM)	inactive	4.89	22	> 648	inactive	> 50	Active	Non-toxic
